Measurements reported in ChEMBL document CHEMBL5260813, “An overview on the recent developments of 1,2,4-triazine derivatives as anticancer compounds” (Eur J Med Chem, 2017).

Columns and labels:
HepG2 = test: Antiproliferative activity against human HepG2 cells assessed as cell growth inhibition; format: functional, cell-based
MDA-MB-231 [1] = test: Antiproliferative activity against human MDA-MB-231 cells assessed as inhibition of cell growth by MTT assay; format: functional, cell-based
MDA-MB-231 [2] = test: Antiproliferative activity against human MDA-MB-231 cells assessed as inhibition of cell growth by [3H]thymidine incorporation assay; format: functional, cell-based
MCF7 [3] = test: Antiproliferative activity against human MCF7 cells assessed as inhibition of cell growth by [3H]thymidine incorporation assay; format: functional, cell-based
MCF7 [4] = test: Antiproliferative activity against human MCF7 cells assessed as inhibition of cell growth by MTT assay; format: functional, cell-based
HCT-116 = test: Antiproliferative activity against human HCT-116 cells assessed as inhibition of cell growth; format: functional, cell-based
MCF7 [5] = test: Antiproliferative activity against human MCF7 cells assessed as inhibition of cell growth; format: functional, cell-based
OVCAR-4 = test: Antiproliferative activity against human OVCAR-4 cells assessed as cell growth inhibition; format: functional, cell-based
MOLT-4 = test: Antiproliferative activity against human MOLT-4 cells assessed as inhibition of cell growth incubated for 72 hrs by MTT assay; format: functional, cell-based; conditions: MOLT-4, 72 h
HL-60 [6] = test: Antiproliferative activity against human HL-60 cells assessed as inhibition of cell growth incubated for 72 hrs by MTT assay; format: functional, cell-based; conditions: HL-60, 72 h
MCF7 [7] = test: Cytotoxicity against human MCF7 cells assessed as inhibition of cell growth incubated for 72 hrs by MTT assay; format: functional, cell-based; conditions: MCF7, 72 h
HL-60 [8] = test: Antiproliferative activity against human HL-60 cells assessed as inhibition of cell growth under normoxia condition incubated for 72 hrs by MTT assay; format: functional, cell-based; conditions: HL-60, 72 h
Bel-7402 [9] = test: Antiproliferative activity against human Bel-7402 cells assessed as inhibition of cell growth under normoxia condition incubated for 72 hrs by MTT assay; format: functional, cell-based; conditions: Bel-7402, 72 h
Bel-7402 [10] = test: Antiproliferative activity against human Bel-7402 cells assessed as inhibition of cell growth under hypoxia condition incubated for 72 hrs by MTT assay; format: functional, cell-based; conditions: Bel-7402, 72 h
[11] = Ratio of IC50 for antiproliferative activity against human Bel-7402 cells assessed as inhibition of cell growth under normoxia condition to IC50 for antiproliferative activity against human Bel-7402 cells assessed as inhibition of cell growth under hypoxia condition; format: functional
HL-60 [12] = test: Antiproliferative activity against human HL-60 cells assessed as inhibition of cell growth under hypoxia condition incubated for 72 hrs by MTT assay; format: functional, cell-based; conditions: HL-60, 72 h
[13] = Ratio of IC50 for antiproliferative activity against human HL-60 cells assessed as inhibition of cell growth under normoxia condition to IC50 for antiproliferative activity against human HL-60 cells assessed as inhibition of cell growth under hypoxia condition; format: functional
[14] = Ratio of IC50 for antiproliferative activity against human PC-3 cells assessed as inhibition of cell growth under normoxia condition to IC50 for antiproliferative activity against human PC-3 cells assessed as inhibition of cell growth under hypoxia condition; format: functional
MCF7 [15] = test: Antiproliferative activity against human MCF7 cells assessed as inhibition of cell growth under normoxia condition incubated for 72 hrs by MTT assay; format: functional, cell-based; conditions: MCF7, 72 h
PC-3 [16] = test: Antiproliferative activity against human PC-3 cells assessed as inhibition of cell growth under hypoxia condition incubated for 72 hrs by MTT assay; format: functional, cell-based; conditions: PC-3, 72 h
MCF7 [17] = test: Antiproliferative activity against human MCF7 cells assessed as inhibition of cell growth under hypoxia condition incubated for 72 hrs by MTT assay; format: functional, cell-based; conditions: MCF7, 72 h
ECa-109 cell line [18] = test: Antiproliferative activity against human Eca-109 cells assessed as inhibition of cell growth under hypoxia condition incubated for 72 hrs by MTT assay; format: functional, cell-based; conditions: ECa-109, 72 h
PC-3 [19] = test: Antiproliferative activity against human PC-3 cells assessed as inhibition of cell growth under normoxia condition incubated for 72 hrs by MTT assay; format: functional, cell-based; conditions: PC-3, 72 h
[20] = Ratio of IC50 for antiproliferative activity against human Eca-109 cells assessed as inhibition of cell growth under normoxia condition to IC50 for antiproliferative activity against human Eca-109 cells assessed as inhibition of cell growth under hypoxia condition; format: functional
ECa-109 cell line [21] = test: Antiproliferative activity against human Eca-109 cells assessed as inhibition of cell growth under normoxia condition incubated for 72 hrs by MTT assay; format: functional, cell-based; conditions: ECa-109, 72 h
[22] = biological target: T1, Interleukin-1 receptor-associated kinase 4 (Homo sapiens, UniProt Q9NWZ3); test: Inhibition of human GST-tagged IRAK4 incubated for 30 mins in presence of ATP by fluorescent polarization assay
T1 sequence (Q9NWZ3 whole entry): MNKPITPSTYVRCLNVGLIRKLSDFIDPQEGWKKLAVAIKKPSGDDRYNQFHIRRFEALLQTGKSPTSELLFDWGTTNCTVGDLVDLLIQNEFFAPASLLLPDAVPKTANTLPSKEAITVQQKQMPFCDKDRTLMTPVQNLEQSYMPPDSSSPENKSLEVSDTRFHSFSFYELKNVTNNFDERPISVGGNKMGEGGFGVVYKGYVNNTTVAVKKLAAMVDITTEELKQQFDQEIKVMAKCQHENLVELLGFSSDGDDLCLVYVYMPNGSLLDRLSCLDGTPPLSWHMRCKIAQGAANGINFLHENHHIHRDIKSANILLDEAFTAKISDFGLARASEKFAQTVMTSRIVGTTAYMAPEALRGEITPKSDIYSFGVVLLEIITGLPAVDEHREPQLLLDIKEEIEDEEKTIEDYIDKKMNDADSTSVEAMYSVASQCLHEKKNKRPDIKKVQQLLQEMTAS

[23] = Ratio of IC50 for antiproliferative activity against human MCF7 cells assessed as inhibition of cell growth under normoxia condition to IC50 for antiproliferative activity against human MCF7 cells assessed as inhibition of cell growth under hypoxia condition; format: functional
[24] = system: Panel NCI-60 (60 carcinoma cell lines); test: Antiproliferative activity against human Panel NCI-60 (60 carcinoma cell lines) assessed as cell growth inhibition incubated for 48 hrs by SRB assay; format: functional
BT-474 = test: Antiproliferative activity against human BT-474 cells assessed as inhibition of cell growth; format: functional, cell-based

Compound O=C1CN2C(=O)/C(=C/c3ccc([N+](=O)[O-])cc3)N=C(c3ccccc3)N2C(=S)N1 has an IC50 (HepG2) of 2.67 µM.
Work on c1ccc(-c2nnc(SSc3nnc(-c4ccccc4)c(-c4ccccc4)n3)nc2-c2ccccc2)cc1 yielded an IC50 (MDA-MB-231 [1]) of 25 µM, an IC50 (MDA-MB-231 [2]) of 39 µM and an IC50 (MCF7 [3]) of 35 µM. For the same compound, the IC50 (MCF7 [4]) was 25 µM.
In the case of c1ccc(-c2cc(SN3CCOCC3)nnc2-c2ccccc2)cc1, the IC50 (MDA-MB-231 [1]) is reported as 88 µM, the IC50 (MDA-MB-231 [2]) is reported as 84 µM and the IC50 (MCF7 [3]) is reported as 87 µM. The IC50 (MCF7 [4]) was 91 µM.
In the case of c1ccc(-c2cc(SN3CCCC3)nnc2-c2ccccc2)cc1, the IC50 (MDA-MB-231 [1]) is reported as 25 µM, the IC50 (MDA-MB-231 [2]) is reported as 40 µM and the IC50 (MCF7 [3]) is reported as 15 µM. It also gave an IC50 (MCF7 [4]) of 30 µM.
With O=c1c(/C=C/c2cccs2)nnc(S)n1/N=C/c1ccccc1 the IC50 (HepG2) was 8.79 µM, the IC50 (HCT-116) was 8.79 µM and the IC50 (MCF7 [5]) was 8.79 µM.
Compound Cc1c(C#N)c2nnc(C#N)c(N)n2c1-c1ccccc1 has an IC50 (OVCAR-4) of 2.77 µM.
In the case of CSc1nnc2c(n1)-c1cccc3cccc-2c13, the IC50 (MOLT-4) is reported as 30 µM, the IC50 (HL-60 [6]) is reported as 30 µM and the IC50 (MCF7 [7]) is reported as 30 µM.
For CC(=O)c1nnc2c(C#N)c(C)c(-c3ccccc3)n2c1C, the IC50 (OVCAR-4) was 2.77 µM.
With O=[N+]([O-])c1ccccc1CSc1nnc2c(n1)-c1cccc3cccc-2c13 the IC50 (MOLT-4) was 30 µM, the IC50 (HL-60 [6]) was 30 µM and the IC50 (MCF7 [7]) was 30 µM.
In the case of CCSc1nnc2c(n1)-c1cccc3cccc-2c13, the IC50 (MOLT-4) is reported as 30 µM, the IC50 (HL-60 [6]) is reported as 30 µM and the IC50 (MCF7 [7]) is reported as 30 µM.
In the case of Nn1c(SC2Sc3nnc(/C=C/c4cccs4)c(=O)n3NC2=O)nnc(/C=C/c2cccs2)c1=O (configuration not stated), the IC50 (HepG2) is reported as 8.79 µM, the IC50 (HCT-116) is reported as 8.79 µM and the IC50 (MCF7 [5]) is reported as 8.79 µM.
Work on CC(=O)Nn1c(S)nnc(/C=C/c2cccs2)c1=O yielded an IC50 (HepG2) of 8.79 µM, an IC50 (HCT-116) of 8.79 µM and an IC50 (MCF7 [5]) of 8.79 µM.
With CCNc1n[n+]([O-])c2cc([N+](=O)[O-])ccc2[n+]1[O-] the IC50 (HL-60 [8]) was 0.2 µM, the IC50 (Bel-7402 [9]) was 0.2 µM and the IC50 (Bel-7402 [10]) was 0.2 µM. The “Ratio IC50” value [11] was 1.6, the IC50 (HL-60 [12]) was 0.2 µM and the “Ratio IC50” value [13] was 1.4. The “Ratio IC50” value [14] was 1.9, the IC50 (MCF7 [15]) was 0.2 µM and the IC50 (PC-3 [16]) was 0.2 µM. It also gave an IC50 (MCF7 [17]) of 0.2 µM, an IC50 (ECa-109 cell line [18]) of 0.2 µM and an IC50 (PC-3 [19]) of 0.2 µM. The “Ratio IC50” value [20] was 2.2 and the IC50 (ECa-109 cell line [21]) was 0.2 µM.
For NC(=O)c1nn(CCO)cc1NC(=O)c1ccc2cnc(NC3CCCCC3N)nn12 (configuration not stated), the IC50 [22] was 0.003 µM.
In the case of Clc1ccc(CSc2nnc3c(n2)-c2cccc4cccc-3c24)cc1Cl, the IC50 (MOLT-4) is reported as 30 µM, the IC50 (HL-60 [6]) is reported as 30 µM and the IC50 (MCF7 [7]) is reported as 30 µM.
Cc1c(-c2ccccc2)c(C#N)c2nnc(C#N)c(N)n12 showed an IC50 (OVCAR-4) of 2.77 µM.
Compound [O-][n+]1nc(NCc2ccccc2)[n+]([O-])c2ccc(Cl)cc21 has an IC50 (HL-60 [8]) of 0.2 µM, an IC50 (Bel-7402 [9]) of 0.2 µM and an IC50 (Bel-7402 [10]) of 0.2 µM. The “Ratio IC50” value [11] was 1.8, the IC50 (HL-60 [12]) was 0.2 µM and the “Ratio IC50” value [13] was 1. The “Ratio IC50” value [14] was 1.4, the IC50 (MCF7 [15]) was 0.2 µM and the IC50 (PC-3 [16]) was 0.2 µM. The IC50 (MCF7 [17]) was 0.2 µM, the IC50 (ECa-109 cell line [18]) was 0.2 µM and the IC50 (PC-3 [19]) was 0.2 µM. For the same compound, the “Ratio IC50” value [23] was 1.1, the “Ratio IC50” value [20] was 3.2 and the IC50 (ECa-109 cell line [21]) was 0.2 µM.
In the case of c1ccc(CSc2nnc3c(n2)-c2cccc4cccc-3c24)cc1, the IC50 (MOLT-4) is reported as 30 µM, the IC50 (HL-60 [6]) is reported as 30 µM and the IC50 (MCF7 [7]) is reported as 30 µM.
With [O-][n+]1nc(Nc2ccccc2)[n+]([O-])c2ccc(Cl)cc21 the IC50 (HL-60 [8]) was 0.2 µM, the IC50 (Bel-7402 [9]) was 0.2 µM and the IC50 (Bel-7402 [10]) was 0.2 µM. The IC50 (HL-60 [12]) was 0.2 µM, the “Ratio IC50” value [13] was 6.9 and the “Ratio IC50” value [14] was 1.3. For the same compound, the IC50 (MCF7 [15]) was 0.2 µM, the IC50 (PC-3 [16]) was 0.2 µM and the IC50 (MCF7 [17]) was 0.2 µM. The IC50 (ECa-109 cell line [18]) was 0.2 µM, the IC50 (PC-3 [19]) was 0.2 µM and the “Ratio IC50” value [23] was 3. The “Ratio IC50” value [20] was 2.8 and the IC50 (ECa-109 cell line [21]) was 0.2 µM.
Clc1ccc(CSc2nnc3c(n2)-c2cccc4cccc-3c24)c(Cl)c1 gave an IC50 (MOLT-4) of 30 µM, an IC50 (HL-60 [6]) of 30 µM and an IC50 (MCF7 [7]) of 30 µM.
O=C1CNN(CSc2nc3ccc(I)cc3c(=O)n2Cc2ccccc2)C=N1 showed a GI50 [24] of 22.6 µM, a TGI [24] of 61.4 µM and a CC50 ([24]; read-out: LC50 (the source's name)) of 89.3 µM.
With CCn1nc(-c2cccs2)nc2c(=O)n(C)c(=O)nc1-2 the IC50 (BT-474) was 0.9 µM.
Work on Cc1nc2c(=O)n(C)c(=O)nc-2n(C)n1 yielded an IC50 (BT-474) of 0.9 µM.
